In patent publication US7342122B2, “Bisphosphonate complexes” (priority 2003, dated 2008):

Key:
MDA-MB-231 = experiment: Cell growth inhibition, breast cancer cell line MDA-MB-231; assay type: cell-based; conditions: MDA-MB-231, breast cancer cell line
Method: (§1) KB cells were purchased from Human Science Research Resource Bank (Osaka, Japan). The cells were cultured in Earle's MEM (GIBCO BRL) containing 10% FBS (Bio Whittaker) at 37° C. under 5% CO2. After 24 hours the test compounds were added to the cells at the indicated concentrations. 72 hours later the cells were stained with tripan blue and counted manually. IC50 is calculated as the concentration (aqueous solution) of complex required to inhibit growth of cells by 50%.
(§2) In a similar fashion a representative number of examples of compounds of the invention were tested for their ability to inhibit the growth/proliferation of cell types representing a number of different cancers. The results are provided in Tables 4-13, below, which provide the Inhibition Constants (IC50, μM) for each compound across various cell lines.

NCI-H23 = experiment: Cell growth inhibition, lung cancer cell line NCI-H23; assay type: cell-based
Method: as §1, §2

MKN1 = experiment: Cell growth inhibition, human stomach cancer MKN1; assay type: cell-based
Method: as §1, §2

BSY-1 = experiment: Cell growth inhibition, breast cancer cell line BSY-1; assay type: cell-based; conditions: BSY-1, breast cancer cell line
Method: as §1, §2

HBC-5 = experiment: Cell growth inhibition, breast cancer cell line HBC-5; assay type: cell-based; conditions: HBC-5, breast cancer cell line
Method: as §1, §2

SF-539 = experiment: Cell growth inhibition, brain cancer cell line SF-539; assay type: cell-based; conditions: SF-539, brain cancer cell line
Method: as §1, §2

PC-3 = experiment: Cell growth inhibition, prostatic cancer PC-3; assay type: cell-based; conditions: PC-3, prostatic cancer
Method: as §1, §2

OVCAR-5 = experiment: Cell growth inhibition, ovarian cancer cell line OVCAR-5; assay type: cell-based; conditions: OVCAR-5, ovarian cancer cell line
Method: as §1, §2

DU-145 = experiment: Cell growth inhibition, prostatic cancer DU-145; assay type: cell-based, human; conditions: DU-145, prostatic cancer
Method: as §1, §2

HBC-4 = experiment: Cell growth inhibition, breast cancer cell line HBC-4; assay type: cell-based; conditions: HBC-4, breast cancer cell line
Method: as §1, §2

OVCAR-3 = experiment: Cell growth inhibition, ovarian cancer cell line OVCAR-3; assay type: cell-based; conditions: OVCAR-3, ovarian cancer cell line
Method: as §1, §2

MCF-7 = experiment: Cell growth inhibition, breast cancer cell line MCF-7; assay type: cell-based; conditions: MCF-7, breast cancer cell line
Method: as §1, §2

SK-OV-3 = experiment: Cell growth inhibition, ovarian cancer cell line SK-OV-3; assay type: cell-based; conditions: SK-OV-3, ovarian cancer cell line
Method: as §1, §2

KM-12 = experiment: Cell growth inhibition, colon cancer cell line KM-12; assay type: cell-based; conditions: KM-12, colon cancer cell line
Method: as §1, §2

DMS273 = experiment: Cell growth inhibition, lung cancer cell line DMS273; assay type: cell-based
Method: as §1, §2

SF-295 = experiment: Cell growth inhibition, brain cancer cell line SF-295; assay type: cell-based; conditions: SF-295, brain cancer cell line
Method: as §1, §2

MKN28 = experiment: Cell growth inhibition, human stomach cancer MKN28; assay type: cell-based
Method: as §1, §2

NCI-H460 = experiment: Cell growth inhibition, lung cancer cell line NCI-H460; assay type: cell-based
Method: as §1, §2

St-4 = experiment: Cell growth inhibition, human stomach cancer St-4; assay type: cell-based; conditions: St-4, human stomach cancer
Method: as §1, §2

MKN45 = experiment: Cell growth inhibition, human stomach cancer MKN45; assay type: cell-based
Method: as §1, §2

SNB-75 = experiment: Cell growth inhibition, brain cancer cell line SNB-75; assay type: cell-based; conditions: SNB-75, brain cancer cell line
Method: as §1, §2

LOX-IMVI = experiment: Cell growth inhibition, melanoma cell line LOX-IMVI; assay type: cell-based
Method: as §1, §2

A549 = experiment: Cell growth inhibition, lung cancer cell line A549; assay type: cell-based
Method: as §1, §2

HCC2998 = experiment: Cell growth inhibition, colon cancer cell line HCC2998; assay type: cell-based
Method: as §1, §2

NCI-H226 = experiment: Cell growth inhibition, lung cancer cell line NCI-H226; assay type: cell-based
Method: as §1, §2

[1] = tested on: all cell types (cancer cell lines of Tables 4-12); experiment: Cell growth inhibition, mean over all cell types of the panel; assay type: cell-based; conditions: mean over all cell lines of Tables 4-12
Method: as §1, §2

SNB-78 = experiment: Cell growth inhibition, brain cancer cell line SNB-78; assay type: cell-based; conditions: SNB-78, brain cancer cell line
Method: as §1, §2

HT-29 = experiment: Cell growth inhibition, colon cancer cell line HT-29; assay type: cell-based; conditions: HT-29, colon cancer cell line
Method: as §1, §2

U251 = experiment: Cell growth inhibition, brain cancer cell line U251; assay type: cell-based
Method: as §1, §2

RXF-631L = experiment: Cell growth inhibition, renal cancer RXF-631L; assay type: cell-based
Method: as §1, §2

ACHN = experiment: Cell growth inhibition, renal cancer ACHN; assay type: cell-based
Method: as §1, §2

MKN74 = experiment: Cell growth inhibition, human stomach cancer MKN74; assay type: cell-based
Method: as §1, §2

NCI-H522 = experiment: Cell growth inhibition, lung cancer cell line NCI-H522; assay type: cell-based
Method: as §1, §2

HCT-116 = experiment: Cell growth inhibition, colon cancer cell line HCT-116; assay type: cell-based; conditions: HCT-116, colon cancer cell line
Method: as §1, §2

OVCAR-8 = experiment: Cell growth inhibition, ovarian cancer cell line OVCAR-8; assay type: cell-based; conditions: OVCAR-8, ovarian cancer cell line
Method: as §1, §2

SF-268 = experiment: Cell growth inhibition, brain cancer cell line SF-268; assay type: cell-based; conditions: SF-268, brain cancer cell line
Method: as §1, §2

HCT-15 = experiment: Cell growth inhibition, colon cancer cell line HCT-15; assay type: cell-based; conditions: HCT-15, colon cancer cell line
Method: as §1, §2

MKN7 = experiment: Cell growth inhibition, human stomach cancer MKN7; assay type: cell-based
Method: as §1, §2

OVCAR-4 = experiment: Cell growth inhibition, ovarian cancer cell line OVCAR-4; assay type: cell-based; conditions: OVCAR-4, ovarian cancer cell line
Method: as §1, §2

DMS114 = experiment: Cell growth inhibition, lung cancer cell line DMS114; assay type: cell-based
Method: as §1, §2

KB cells = experiment: In vitro assay, cell growth inhibition (KB cells); assay type: cell-based; conditions: 72 hours
Method: as §1

Row | Compound | log10 IC50 (M) (MDA-MB-231) | log10 IC50 (M) (NCI-H23) | log10 IC50 (M) (MKN1) | log10 IC50 (M) (BSY-1) | log10 IC50 (M) (HBC-5) | log10 IC50 (M) (PC-3) | log10 IC50 (M) (DU-145) | log10 IC50 (M) (HBC-4) | log10 IC50 (M) (OVCAR-3) | log10 IC50 (M) (MCF-7) | log10 IC50 (M) (SK-OV-3) | log10 IC50 (M) (DMS273) | log10 IC50 (M) (SF-295) | log10 IC50 (M) (NCI-H460) | log10 IC50 (M) (MKN45) | log10 IC50 (M) (SNB-75) | log10 IC50 (M) (LOX-IMVI) | log10 IC50 (M) [1] | log10 IC50 (M) (SNB-78) | log10 IC50 (M) (RXF-631L) | other results
1 | [Cl-].[Cl-].c1cc[n+]2c(c1)-c1cccc[n+]1[Pt-2]21[NH2+]CCC[NH+]1Cc1c2ccccc2cc2ccccc12 [Example 7, Pt(bpy)(AtC3)] | -5.78 | -5.53 | -5.6 | -5.89 | -5.89 | -5.59 | -5.73 | -5.76 | -5.68 | -5.69 | -5.61 | -5.68 | -5.62 | -5.71 | -5.63 | -5.59 | -5.76 | -5.68 | -5.54 | -5.67 | log10 IC50 (M) (SF-539): -5.75; log10 IC50 (M) (OVCAR-5): -5.8; log10 IC50 (M) (KM-12): -5.69; log10 IC50 (M) (MKN28): -5.64; log10 IC50 (M) (St-4): -5.61; log10 IC50 (M) (A549): -5.68; log10 IC50 (M) (HCC2998): -5.7; log10 IC50 (M) (NCI-H226): -5.64; log10 IC50 (M) (HT-29): -5.69; log10 IC50 (M) (U251): -5.66; log10 IC50 (M) (ACHN): -5.67; log10 IC50 (M) (MKN74): -5.63; log10 IC50 (M) (NCI-H522): -5.77; log10 IC50 (M) (HCT-116): -5.72; log10 IC50 (M) (OVCAR-8): -5.52; log10 IC50 (M) (SF-268): -5.62; log10 IC50 (M) (HCT-15): -5.56; log10 IC50 (M) (MKN7): -5.62; log10 IC50 (M) (OVCAR-4): -5.7; log10 IC50 (M) (DMS114): -5.76
2 | N.N.O.O.O.O.O.O.O.O=P([O-])([O-])OC1C(OP(=O)([O-])[O-])C(OP(=O)([O-])[O-])C(OP(=O)([O-])[O][Pt+])C(OP(=O)([O-])[O-])C1OP(=O)([O-])[O-].[Na+].[Na+].[Na+].[Na+].[Na+].[Na+].[Na+].[Na+].[Na+].[Na+] (centres unmarked) [Example 9, Pt(NH3)—IP6 Pt(NH3)2.IP6.10Na.7H2O] | -4.06 | -4.7 | -4.42 | -4.71 | -5.16 | -4.04 | -4.66 | -4.27 | -4.82 | -4.19 | -5.2 | -4.29 | -4.46 | -4.46 | -4.14 | -5.51 | -4.08 | -4.38 | -4.29 | -4.37 | log10 IC50 (M) (ACHN): -5.37; log10 IC50 (M) (NCI-H522): -5.69; log10 IC50 (M) (HCT-116): -4.41; log10 IC50 (M) (SF-268): -4.26; log10 IC50 (M) (OVCAR-4): -4.42; log10 IC50 (M) (DMS114): -4.72
3 | cis-Pt(NH3)2Cl2 | – | – | – | – | – | – | – | – | – | – | – | – | – | – | – | – | – | – | – | – | KB cells remaining/growth in percent (Table 2, untitled) (KB cells; 1 μg/ml): 17.0%; KB cells remaining/growth in percent (Table 2, untitled) (KB cells; 3 μg/mL): 13.4%; KB cells remaining/growth in percent (Table 1, untitled) (KB cells; 5 μM): 28.20%; KB cells remaining/growth in percent (Table 2, untitled) (KB cells; 10 μg/mL): 3.0%; KB cells remaining/growth in percent (Table 1, untitled) (KB cells; 15 μM): 13.80%; KB cells remaining/growth in percent (Table 2, untitled) (KB cells; 30 μg/mL): 2.2%; KB cells remaining/growth in percent (Table 1, untitled) (KB cells; 50 μM): 6.78%; KB cells remaining/growth in percent (Table 2, untitled) (KB cells; 100 μg/mL): 1.6%; KB cells remaining/growth in percent (Table 1, untitled) (KB cells; 150 μM): 4.34%; KB cells remaining/growth in percent (Table 1, untitled) (KB cells; 500 μM): 3.52%; IC50 (KB cells; concentration to inhibit growth of cells by 50%): 2750 nM
